Assay results reported in US11007503B2, “Systems and methods for a cooled nitric oxide generator” (The General Hospital Corporation, priority 2017, dated 2021).

Test system: rabbits with acute pulmonary hypertension

## CCCCC[C@H](O)/C=C/[C@@H]1[C@@H](C/C=C\CCCC(=O)O)[C@H]2CO[C@@H]1C2 [U46619]
Anesthetized rabbits, continuous infusion over 60 mins, RVSP increased from baseline 14±2 mmHg
  right ventricular systolic pressure (RVSP) after U46619 infusion: 28-30 mmHg

## [N]=O [NO, nitric oxide]
Electrically generated NO (20, 40 or 80 ppm) produced on inspiration by prototype generator, 50% O2, RVSP 30 mmHg before NO breathing, FIG. 14
  RVSP at one min after breathing NO: 24 mmHg
